Results from US9290688B2, “Alkaline microbial enhanced oil recovery” (GEO FOSSIL FUELS, LLC, priority 2011, dated 2016).

Assays:
[1] = system: Rhodococcus rhodochrous ATCC #53968; experiment: Growth of bacteria on crude oil with inhibitors, optical density at 600 nm; type: cell-based
Procedure: (§1) An oil degrading microorganism was used to evaluate the use of chemical inhibitors to slow the utilization of hydrocarbons in petroleum. In a non-limiting example, three different chemical compounds that have been reported to inhibit beta-oxidation were tested in oil and culture medium on a petroleum sample with a strain of Rhodococcus rhodochrous ATCC #53968 in m9 minimal medium. To test the ability of each chemical inhibitor to slow the consumption of fatty acids a culture of bacteria was grown on a crude oil sample for a period of three days with crude petroleum oil as the only carbon source. Four separate flasks were set up, each with an oil to aqueous media ratio of 1 to 5 (10 ml of crude oil to 50 ml of culture medium). Each of the three chemical inhibitors was added to a separate flask and a fourth flask was allowed to digest without the addition of a chemical inhibitor as a control. The flasks were shaken at a room temperature of about 25° C. under aerobic conditions. The progress of the microbial digestion was monitored by the optical density at 600 nm and by visual inspection of the brown oil color in the aqueous phase. Three days after the addition of inhibitors, or a total of six days of incubation with oil, a small sample of oil (0.31 g) was removed. A second sample of the same size was remover after another 6 days. The organic acids were extracted from each oil sample with 1% NaOH in 70% ethanol. The samples were shaken vigorously for one minute. The aqueous extract material was then extracted with hexane to remove any trace of oil. The samples of extracted organic acids were then dried under vacuum and converted to methyl esters with BF3 in methanol.
Digestion with the bacteria increases the total amount of carboxylic acids in all the samples. The digestions with the chemical beta-oxidation inhibitors produce about the same or a little more total methyl ester peaks than the bacterial digestion without an inhibitor. […] The later eluting peaks increase at a faster rate with the inhibitors than without. For example, the 12 day sample with no inhibitor increase from 5.9 to 45.9 area units for peaks up to 13 minutes. The sample with the acrylic acid inhibitor has an increase of from 5.9 to 43.7 area units, which is less than without inhibitor. The later eluting peaks increase from 3.6 to 14.3 without the inhibitor, but with acrylic acid the later peak areas increase to 22.5 area units. […] After 6 days of digestion the optical density had reached 2.23 for the uninhibited digestion as compared to 0.49 for the acrylic acid inhibited sample and 1.84 for the 2-bromooctanoic acid and 2.4 for the 2-bromohexadeconoic acid. After 12 days of digestion the uninhibited sample had reached 4.0 and the acrylic acid had increased to 1.7 and 2.2 and 2.4 for the other two inhibitors. Therefore, by this experimental analysis one can determine which inhibitors increase the carboxylic acid content or the acid number of the oil fastest with the least amount of oil consumption. The oil consumption can be determined by quantitation of remaining oil or by growth of bacteria were oil is the only carbon source. It appears that all the inhibitors helped reduce the utilization of fatty acids and the consumption of oil while producing an increase in acid number.

[2] = system: Rhodococcus rhodochrous ATCC #53968; experiment: End of digestion: oil and aqueous volumes, acid number by alcoholic alkaline extraction and back titration; type: cell-based; details: one ml of oil, alcoholic alkaline extraction, back titration; acrylic acid value per gram of oil emulsion
Procedure: as §1, with “The samples were shaken vigorously for one minute. The aqueous extract material was then extracted with hexane to remove any trace of oil. The samples of extracted organic acids were then dried under vacuum and converted to methyl esters with BF3 in methanol.” left out
At the end of the experiment the oil and water were separated and the volume determined. […] This would have under reported the amount of methyl esters determined by GC analysis. The amount of aqueous phase was determined to be 22.5 ml for the acrylic acid sample and 46 ml, 48 ml and 47.5 ml for the others. […] The calculated acid number for the uninhibited digestion was 5 mg of KOH per gram. The other two inhibited digestions were analyzed to be 4.5 mg for the 2-bromooctanoic acid and 6.5 for the 2-bromohexadecanoic acid inhibited digestion. The undigested oil was determined to have an acid number of 6.5 mg of KOH by analysis of a one gram sample and a 10 gram sample. […]

[3] = after 6 days of digestion, crude oil only carbon source

SMILES | optical density [1, 3] | optical density ([1]; after 12 days of digestion) | final analysis acid number [2] [mg KOH per gram]
C=CC(=O)O [AA, acrylic acid] | 0.49 | 1.7 | 10
CCCCCCC(Br)C(=O)O (stereo not drawn) [Br C8, 2-bromooctanoic acid] | 1.84 | 2.2 | 4.5
